Test results taken from PMC5400620, “Preclinical therapeutic efficacy of a novel blood-brain barrier-penetrant dual PI3K/mTOR inhibitor with preferential response in PI3K/PTEN mutant glioma” (Oncotarget, 2017).

Legend:
[1] = system: GSC11 GICs; experiment: GSC11 orthotopic intracranial xenograft efficacy; assay type: in vivo, nude mice; settings: GSC11 tumor-bearing mice, 6 mg/kg oral; control 47 days; P=0.014
Description: (§1) Figure 4 DS7423 suppressed tumor growth and prolonged survival in an orthotopic mouse xenograft model U87 glioma cells U87 and GSC11 GICs were used to generate orthotopic xenografts in mouse brains. Tumor-bearing mice received either vehicle or DS7423 at the indicated dose/schedules. Two mice were killed at the indicated time points (2 weeks and 4 weeks) after DS treatment. A. and B. Kaplan–Meier survival plots of tumor-bearing mice in vehicle or DS7423 treatment groups (n = 10). The log-rank method was used to test for a difference between groups. […] Bar, 100 μm.
(§2) 6 to 8-week-old male nude mice were obtained from the MD Anderson breeding facility and used in accordance with the Animal Care and Use Guidelines of MD Anderson Cancer Center. In this study, 5 × 10^5 U87 (PTEN mutant) cells in DMEM/F12 serum-free media (5 μL) and GSC11 (PIK3CA mutant and PTEN mutant) were implanted intracranially into each mouse using a guide-screw system, as described previously. Four days after injection of the tumor cells, mice were randomized into 2 groups (10 animals per group). Mice in-group 1 was given 6 mg/kg DS7423 via oral gavage, and mice in-group 2 were given the vehicle (0.5% methyl cellulose) used for administration of DS (control). […] Mice were monitored daily and euthanized when they became moribund. […]

[2] = biological target: T1, never-in-mitosis gene a (NIMA)-related kinase 2 (NEK2) (Homo sapiens, UniProt P51955); experiment: kinase panel, direct measurement of substrate phosphorylation, NEK2; assay type: biochemical; settings: panel of 227 kinases; test concentration not given
T1 sequence (P51955 1-445): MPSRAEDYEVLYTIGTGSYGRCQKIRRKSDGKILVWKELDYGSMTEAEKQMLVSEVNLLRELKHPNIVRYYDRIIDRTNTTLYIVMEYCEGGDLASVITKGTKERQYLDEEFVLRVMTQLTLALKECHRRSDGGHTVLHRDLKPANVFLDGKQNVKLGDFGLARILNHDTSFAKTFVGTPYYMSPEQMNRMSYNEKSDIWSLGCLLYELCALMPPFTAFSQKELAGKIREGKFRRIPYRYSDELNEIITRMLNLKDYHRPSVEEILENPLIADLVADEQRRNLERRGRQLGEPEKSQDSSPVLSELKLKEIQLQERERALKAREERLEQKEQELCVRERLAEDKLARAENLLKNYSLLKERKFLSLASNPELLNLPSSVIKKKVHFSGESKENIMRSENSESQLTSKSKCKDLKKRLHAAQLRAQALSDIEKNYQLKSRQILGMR
Method: (§3) DS7423 inhibits PI3K/mTOR activity likely binding to the ATP binding cleft of these enzymes and was tested against class I PI3K and other kinases using an HTRF assay format and direct measurement of substrate phosphorylation, respectively.

[3] = biological target: p110γ (Homo sapiens, UniProt P48736); experiment: class I PI3K HTRF assay, p110γ; assay type: biochemical
Method: as §3

[4] = system: U87 glioma cells; experiment: U87 orthotopic intracranial xenograft efficacy; assay type: in vivo
Description: as §1, §2

[5] = biological target: mixed lineage kinase 1 (MLK1) (Homo sapiens, UniProt P80192); experiment: kinase panel, direct measurement of substrate phosphorylation, MLK1; assay type: biochemical; settings: panel of 227 kinases; test concentration not given
Method: as §3

[6] = system: PI3K/mTOR signaling (pAkt, pS6); experiment: pAkt and pS6 in U87 tumors or brain after a single PO dose; assay type: in vivo, mice; settings: single PO dose 6 mg/kg, compared with untreated animals
Method: Figure 1 A. and B. Plasma and brain concentration-time profile of DS7423 following a single PO administration (6 mg/kg) to nude mice. C. Western blot of mouse brains probed with antibodies against pAkt (Ser473) and pS6 (Ser235/236) in a time profile similar to that shown in A and B. Results are presented as the mean ± SE of six animals in each group.
To correlate DS brain concentration with the modulation of PI3K/mTOR signaling in U87 tumors, we used immunohistochemical analysis to study the signaling alterations in tumor sections derived from mice at similar time points following a single PO dose of DS (6 mg/kg). Tissue sections were probed with antibodies against pAkt and pS6. […] DS plasma and brain concentrations decreased after 24 hours, which correlated with an increase in pAkt and pS6.

[7] = system: LN229; experiment: LN229 intracranial model efficacy; assay type: in vivo; settings: LN229 tumor-bearing mice, PTEN wild type
Method: We studied the efficacy of DS in 2 intracranial tumor models; the U87 glioma cell line and the GSC11 glioma initiating cell line are both PTEN mutant and GSC-11 is PIK3CA mutant cells. The median survival time of the U87 tumor-bearing control mice (i.e., those injected with methylcellulose only) was 30 days, whereas the median survival time of the U87 tumor-bearing mice orally treated with 6 mg/kg of DS was 46 days (Figure 4A; P=0.025). The median survival of the GSC11 tumor-bearing mice orally treated with 6 mg/kg of DS was 61 days (Figure 4B; P=0.014) compared with 47 days for the control-treated mice. The in vivo therapeutic efficacy of DS was assessed by plotting the Kaplan-Meier survival curves of the animals, and group data were compared using the log-rank test (Figure 4A and 4B). […] We also studied LN229 a PTEN wild type cell line to study the efficacy of DS in intracranial model.

p110γ, sequence (P48736 whole entry): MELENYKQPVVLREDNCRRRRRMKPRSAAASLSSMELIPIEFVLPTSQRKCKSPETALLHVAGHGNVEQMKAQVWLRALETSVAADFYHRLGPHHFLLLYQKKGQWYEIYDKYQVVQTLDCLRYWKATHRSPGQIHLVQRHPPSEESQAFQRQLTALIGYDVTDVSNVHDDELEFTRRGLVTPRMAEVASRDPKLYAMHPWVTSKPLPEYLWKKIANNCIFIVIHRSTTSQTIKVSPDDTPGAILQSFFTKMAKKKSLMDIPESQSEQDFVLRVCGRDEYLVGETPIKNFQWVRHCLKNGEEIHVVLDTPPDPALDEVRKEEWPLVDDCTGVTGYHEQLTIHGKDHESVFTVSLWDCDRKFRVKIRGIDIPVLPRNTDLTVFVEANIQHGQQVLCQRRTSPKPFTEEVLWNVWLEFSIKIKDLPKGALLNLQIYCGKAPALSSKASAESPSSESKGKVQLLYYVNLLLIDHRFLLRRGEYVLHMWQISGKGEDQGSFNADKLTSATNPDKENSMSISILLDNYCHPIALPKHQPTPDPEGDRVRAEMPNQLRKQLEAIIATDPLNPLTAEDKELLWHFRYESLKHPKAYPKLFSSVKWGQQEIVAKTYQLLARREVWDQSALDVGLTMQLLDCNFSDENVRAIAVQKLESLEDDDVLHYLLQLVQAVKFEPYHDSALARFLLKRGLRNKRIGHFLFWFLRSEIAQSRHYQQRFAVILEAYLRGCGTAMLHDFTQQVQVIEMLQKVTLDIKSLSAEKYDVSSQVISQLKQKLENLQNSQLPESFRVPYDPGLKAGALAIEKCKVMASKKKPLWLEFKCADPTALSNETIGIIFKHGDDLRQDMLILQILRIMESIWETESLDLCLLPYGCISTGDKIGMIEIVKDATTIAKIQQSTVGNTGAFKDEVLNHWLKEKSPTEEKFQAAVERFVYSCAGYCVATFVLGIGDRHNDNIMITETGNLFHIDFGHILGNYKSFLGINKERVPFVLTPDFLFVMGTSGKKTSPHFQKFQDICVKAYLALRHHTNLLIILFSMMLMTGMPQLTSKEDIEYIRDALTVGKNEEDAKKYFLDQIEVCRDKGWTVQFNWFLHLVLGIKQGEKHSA
mixed lineage kinase 1 (MLK1), sequence (P80192 whole entry): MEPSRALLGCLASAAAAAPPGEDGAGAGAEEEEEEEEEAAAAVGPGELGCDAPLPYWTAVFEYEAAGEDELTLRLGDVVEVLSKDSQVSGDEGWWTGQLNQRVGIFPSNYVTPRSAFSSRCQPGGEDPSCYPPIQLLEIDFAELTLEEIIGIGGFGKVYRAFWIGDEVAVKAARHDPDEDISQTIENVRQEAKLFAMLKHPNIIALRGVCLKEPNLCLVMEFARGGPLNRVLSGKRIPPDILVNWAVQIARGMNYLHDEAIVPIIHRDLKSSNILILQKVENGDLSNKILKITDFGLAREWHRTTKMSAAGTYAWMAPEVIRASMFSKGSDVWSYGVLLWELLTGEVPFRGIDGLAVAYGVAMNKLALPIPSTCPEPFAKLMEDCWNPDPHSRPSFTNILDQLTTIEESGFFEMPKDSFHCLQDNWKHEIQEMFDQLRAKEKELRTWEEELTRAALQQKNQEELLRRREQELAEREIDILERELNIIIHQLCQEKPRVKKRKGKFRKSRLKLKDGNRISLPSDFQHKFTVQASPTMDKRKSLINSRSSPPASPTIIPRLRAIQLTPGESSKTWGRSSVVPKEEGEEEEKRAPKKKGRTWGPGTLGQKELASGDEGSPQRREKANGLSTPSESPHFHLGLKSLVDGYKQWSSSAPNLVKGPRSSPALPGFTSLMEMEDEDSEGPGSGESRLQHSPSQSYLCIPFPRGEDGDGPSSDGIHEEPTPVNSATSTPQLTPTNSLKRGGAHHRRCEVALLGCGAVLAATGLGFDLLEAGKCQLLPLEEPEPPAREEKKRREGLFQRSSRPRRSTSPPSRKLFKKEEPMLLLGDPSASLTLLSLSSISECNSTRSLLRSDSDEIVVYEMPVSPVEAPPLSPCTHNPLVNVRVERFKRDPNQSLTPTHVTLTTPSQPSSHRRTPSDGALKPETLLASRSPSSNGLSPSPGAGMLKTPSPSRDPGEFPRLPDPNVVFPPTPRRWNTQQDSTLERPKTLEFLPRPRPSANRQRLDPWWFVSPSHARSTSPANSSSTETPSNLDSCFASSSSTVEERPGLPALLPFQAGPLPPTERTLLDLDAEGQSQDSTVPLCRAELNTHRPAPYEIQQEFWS

CC(=O)N1CCN(c2nc3c(N4CCOCC4)nc(-c4cnc(N)nc4)nc3n2CC(F)(F)F)C[C@H]1C [DS, 1-{(2R)-4-[2-(2-Aminopyrimidin-5-yl)-6-(morpholin-4-yl)-9-(2,2,2-trifluoroethyl)-9H-purin-8-yl]-2-methylpiperazin-1-yl}ethan-1-one]
median survival [1]: 61 days
inhibition of NEK2 [2]: greater than 50%
IC50 [3]: 249 nM
median survival time ([4]; U87 tumor-bearing mice, 6 mg/kg oral, control 30 days, P=0.025): 46 days
toxic effects in mice with intracranial xenograft tumors ([4]; treated mice): without causing any obvious toxic effects
inhibition of MLK1 [5]: greater than 50%
pAkt and pS6 staining in U87 tumors [6]: marked reduction
effect on median survival [7]: no effect on median survival
